# Values quoted from earlier work, collected in patent US8969412B2, “Use for a composition comprising chloroprocaine HCL, a new composition comprising chloroprocaine HCL and a method for its manufacture” (Sintetica S.A., priority 2005, dated 2015).
# Columns and labels:
# [1] = intrathecal anaesthesia
# [2] = intrathecal application
# [3] = in vivo
structure (smiles),measurement,setting,value
CCN(CC)CCOC(=O)c1ccc(N)cc1 [procaine],inadequacy rate,[1],17%
CCN(CC)CC(=O)Nc1c(C)cccc1C [lidocaine],transient neurologic syndrome (TNS),[2],associated with symptoms of so-called transient neurologic syndrome (TNS)
"CCN(CC)CCOC(=O)c1ccc(N)cc1Cl [Chloroprocaine, 2-(diethylaminoethyl)-4-amino-chlorobenzoate]",systemic toxicity,[3],very low systemic toxicity
